Reference: US20240018123A1, “COMPOUND FOR INHIBITING OR DISINTEGRATING ANDROGEN RECEPTOR, AND PHARMACEUTICAL USE THEREOF” (KOREA RESEARCH INSTITUTE OF CHEMICAL TECHNOLOGY, priority 2020, published 2024)

Legend:
Androgen receptor (AR) = target: T1, Androgen receptor (AR) (Homo sapiens, UniProt P10275, T878A); assay: Assessment of AR proteolytic activity (Western blotting of LNCap cell lysates); type: cell-based; details: 24 hours of treatment, Western blotting quantified with Image J
T1 construct: 5.5×10^5 LNCap cells were injected into each well of a 6-well plate; endogenous in cells; host or cells: LNCaP
T1 sequence (P10275 1-920 T878A): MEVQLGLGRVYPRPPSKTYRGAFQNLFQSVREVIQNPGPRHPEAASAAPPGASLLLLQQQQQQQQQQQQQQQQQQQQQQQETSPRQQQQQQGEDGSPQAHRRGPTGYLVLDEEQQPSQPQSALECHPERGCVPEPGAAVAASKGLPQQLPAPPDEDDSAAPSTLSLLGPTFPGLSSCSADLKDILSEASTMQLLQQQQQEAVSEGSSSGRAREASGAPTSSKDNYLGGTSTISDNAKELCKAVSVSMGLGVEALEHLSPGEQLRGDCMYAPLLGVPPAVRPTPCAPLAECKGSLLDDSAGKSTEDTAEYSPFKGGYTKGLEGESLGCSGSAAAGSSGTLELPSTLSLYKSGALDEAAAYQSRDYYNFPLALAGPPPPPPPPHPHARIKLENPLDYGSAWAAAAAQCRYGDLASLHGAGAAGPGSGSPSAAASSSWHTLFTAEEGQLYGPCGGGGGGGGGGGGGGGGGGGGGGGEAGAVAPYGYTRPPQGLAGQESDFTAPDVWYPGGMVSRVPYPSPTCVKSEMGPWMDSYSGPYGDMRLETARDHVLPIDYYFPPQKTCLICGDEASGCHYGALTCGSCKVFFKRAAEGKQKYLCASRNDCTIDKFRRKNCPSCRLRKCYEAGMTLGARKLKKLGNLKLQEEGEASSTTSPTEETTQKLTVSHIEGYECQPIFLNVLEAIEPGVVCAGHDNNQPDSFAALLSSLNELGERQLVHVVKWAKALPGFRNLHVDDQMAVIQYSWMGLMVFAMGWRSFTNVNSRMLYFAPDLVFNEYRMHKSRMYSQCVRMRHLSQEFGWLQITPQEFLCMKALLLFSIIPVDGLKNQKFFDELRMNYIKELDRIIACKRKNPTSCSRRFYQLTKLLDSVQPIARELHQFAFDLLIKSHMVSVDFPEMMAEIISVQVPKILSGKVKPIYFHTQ
In short: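 AR degradation read by Western blot densitometry on RIPA lysates (pH 7.5, protease inhibitor cocktail). Lysates came from LNCap cells, 5.5×10^5 per well, exposed to compound for 24 hours.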

VCaP cells = assay: Cytotoxicity assessment (Cell-titer-glo cell viability), VCaP; details: read-out: VCaP (CC50); VCaP cells, 6 days of treatment, Cell-titer-glo, vs DMSO
LNCaP cells = assay: Cytotoxicity assessment (Cell-titer-glo cell viability), LNCaP; details: read-out: LNCAP (CC50); LNCaP cells, 6 days of treatment, Cell-titer-glo, vs DMSO

Compound | Degradation (1 μM treated in LNCaP, % AR remaining) (Androgen receptor (AR)) [%] | CC50 (VCaP cells) [µM] | CC50 (LNCaP cells) [µM]
CC1(C)[C@H](NC(=O)c2ccc(N3CCN(C4CC5(CCN(c6cccc7nnn(C8CCC(=O)NC8=O)c(=O)c67)CC5)C4)CC3)cc2)C(C)(C)[C@H]1Oc1ccc(C#N)c(Cl)c1 (stereo partly drawn) [Example 22, N-((1r,3r)-3-(3-chloro-4-cyanophenoxy)-2,2,4,4-tetramethylcyclobutyl)-4-(4-(7-(3-(2,6-dioxopiperidin-3-yl)-4-oxo-3,4-dihydrobenzo[d][1,2,3]triazin-5-yl)-7-azaspiro[3.5]nonan-2-yl)piperazin-1-yl)benzamide] | 74 | 0.135 | 13.4
N-((1r,3r)-3-(3-chloro-4-cyanophenoxy)-2,2,4,4-tetramethylcyclobutyl)-4-(4-(2-((1-(1-(3-(2,6-dioxopiperidin-3-yl)-4-oxo-3,4-dihydrobenzo[d][1,2,3]triazin-6-yl)piperidine-4-carbonyl piperidin-4-yl)oxy)ethyl)piperazin-1-yl)benzamide [Example 30] | 4 | 0.08 | 0.847
CC1(C)C(NC(=O)c2ccc(CCN3CC4CN(C(=O)C5CCN(c6ccc7nnn(C8CCC(=O)NC8=O)c(=O)c7c6)CC5)CC4C3)cc2)C(C)(C)C1Oc1ccc(C#N)c(Cl)c1 (stereo not drawn) [Example 93, N-((1r,3r)-3-(3-chloro-4-cyanophenoxy)-2,2,4,4-tetramethylcyclobutyl)-4-(2-(5-(1-(3-(2,6-dioxopiperidin-3-yl)-4-oxo-3,4-dihydrobenzo[d][1,2,3]triazin-6-yl)piperidine-4-carbonyl)hexahydropyrrolo[3,4-c]pyrrol-2(1H)-yl)ethyl)benzamide] |  | 0.0224 | 0.0515
CC1(C)C(NC(=O)c2ccc(-c3cnn(C4CCN(CC5CCN(c6ccc7nnn(C8CCC(=O)NC8=O)c(=O)c7c6)CC5)CC4)c3)nc2)C(C)(C)C1Oc1ccc(C#N)c(Cl)c1 (stereo not drawn) [Example 115, N-((1r,3r)-3-(3-chloro-4-cyanophenoxy)-2,2,4,4-tetramethylcyclobutyl)-6-(1-(1-((1-(3-(2,6-dioxopiperidin-3-yl)-4-oxo-3,4-dihydrobenzo[d][1,2,3]triazin-6-yl)piperidin-4-yl)methyl)piperidin-4-yl)-1H-pyrazol-4-yl)nicotinamide] |  | 0.038 | 0.182
CC1(C)C(NC(=O)c2ccc(C#CCC3CCN(CC4CCN(C(=O)C5CN(c6ccc7nnn(C8CCC(=O)NC8=O)c(=O)c7c6)C5)CC4)CC3)cc2)C(C)(C)C1Oc1ccc(C#N)c(Cl)c1 (stereo not drawn) [Example 117, N-((1r,3r)-3-(3-chloro-4-cyanophenoxy)-2,2,4,4-tetramethylcyclobutyl)-4-(3-(1-((1-(1-(3-(2,6-dioxopiperidin-3-yl)-4-oxo-3,4-dihydrobenzo[d][1,2,3]triazin-6-yl)azetidine-3-carbonyl)piperidin-4-yl)methyl)piperidin-4-yl)prop-1-yn-1-yl)benzamide] |  | 0.013 | 0.166
CC1(C)C(NC(=O)c2ccc(CCN3CCN(CC4CCN(C(=O)CNc5ccc6nnn(C7CCC(=O)NC7=O)c(=O)c6c5)CC4)CC3)cc2)C(C)(C)C1Oc1ccc(C#N)c(Cl)c1 (stereo not drawn) [Example 110, N-((1r,3r)-3-(3-chloro-4-cyanophenoxy)-2,2,4,4-tetramethylcyclobutyl)-4-(2-(4-((1-((3-(2,6-dioxopiperidin-3-yl)-4-oxo-3,4-dihydrobenzo[d][1,2,3]triazin-6-yl)glycyl)piperidin-4-yl)methyl)piperazin-1-yl)ethyl)benzamide] |  | 0.00365 | 0.456
CC1(C)C(NC(=O)c2ccc(-n3cc(C4CCN(C(=O)CNc5ccc6nnn(C7CCC(=O)NC7=O)c(=O)c6c5)CC4)nn3)cc2)C(C)(C)C1Oc1ccc(C#N)c(Cl)c1 (stereo not drawn) [Example 107, N-((1r,3r)-3-(3-chloro-4-cyanophenoxy)-2,2,4,4-tetramethylcyclobutyl)-4-(4-(1-((3-(2,6-dioxopiperidin-3-yl)-4-oxo-3,4-dihydrobenzo[d][1,2,3]triazin-6-yl)glycyl)piperidin-4-yl)-1H-1,2,3-triazol-1-yl)benzamide] |  | 0.00359 | 0.0899
CC1(C)C(NC(=O)c2ccc(CCN3CCN(CC4CCN(c5ccc6nnn(C7CCC(=O)NC7=O)c(=O)c6c5)CC4)CC3)cc2)C(C)(C)C1Oc1ccc(C#N)c(Cl)c1 (stereo not drawn) [Example 111, N-((1r,3r)-3-(3-chloro-4-cyanophenoxy)-2,2,4,4-tetramethylcyclobutyl)-4-(2-(4-((1-(3-(2,6-dioxopiperidin-3-yl)-4-oxo-3,4-dihydrobenzo[d][1,2,3]triazin-6-yl)piperidin-4-yl)methyl)piperazin-1-yl)ethyl)benzamide] |  | 0.00229 | 0.0372
CC1(C)C(NC(=O)c2ccc(CCN3CC4CN(C(=O)C5CN(c6ccc7nnn(C8CCC(=O)NC8=O)c(=O)c7c6)C5)CC4C3)cc2)C(C)(C)C1Oc1ccc(C#N)c(Cl)c1 (stereo not drawn) [Example 94, N-((1r,3r)-3-(3-chloro-4-cyanophenoxy)-2,2,4,4-tetramethylcyclobutyl)-4-(2-(5-(1-(3-(2,6-dioxopiperidin-3-yl)-4-oxo-3,4-dihydrobenzo[d][1,2,3]triazin-6-yl)azetidine-3-carbonyl)hexahydropyrrolo[3,4-c]pyrrol-2(1H)-yl)ethyl)benzamide] |  | 0.00784 | 0.108
CC1(C)C(NC(=O)c2ccc(-n3cc(CC4CCN(c5ccc6nnn(C7CCC(=O)NC7=O)c(=O)c6c5)CC4)nn3)cc2)C(C)(C)C1Oc1ccc(C#N)c(Cl)c1 (stereo not drawn) [Example 103, N-((1r,3r)-3-(3-chloro-4-cyanophenoxy)-2,2,4,4-tetramethylcyclobutyl)-4-(4-((1-(3-(2,6-dioxopiperidin-3-yl)-4-oxo-3,4-dihydrobenzo[d][1,2,3]triazin-6-yl)piperidin-4-yl)methyl)-1H-1,2,3-triazol-1-yl)benzamide] |  | 0.0123 | 0.144
CC1(C)C(NC(=O)c2ccc(-n3cc(C4CCN(C(=O)C5CCN(c6ccc7nnn(C8CCC(=O)NC8=O)c(=O)c7c6)CC5)CC4)nn3)cc2)C(C)(C)C1Oc1ccc(C#N)c(Cl)c1 (stereo not drawn) [Example 102, N-((1r,3r)-3-(3-chloro-4-cyanophenoxy)-2,2,4,4-tetramethylcyclobutyl)-4-(4-(1-(1-(3-(2,6-dioxopiperidin-3-yl)-4-oxo-3,4-dihydrobenzo[d][1,2,3]triazin-6-yl)piperidine-4-carbonyl)piperidin-4-yl)-1H-1,2,3-triazol-1-yl)benzamide] |  | 0.00588 | 0.0158
CC1(C)C(NC(=O)c2ccc(-n3cc(CC4CCN(C(=O)CNc5ccc6nnn(C7CCC(=O)NC7=O)c(=O)c6c5)CC4)nn3)cc2)C(C)(C)C1Oc1ccc(C#N)c(Cl)c1 (stereo not drawn) [Example 106, N-((1r,3r)-3-(3-chloro-4-cyanophenoxy)-2,2,4,4-tetramethylcyclobutyl)-4-(4-((1-((3-(2,6-dioxopiperidin-3-yl)-4-oxo-3,4-dihydrobenzo[d][1,2,3]triazin-6-yl)glycyl)piperidin-4-yl)methyl)-1H-1,2,3-triazol-1-yl)benzamide] |  | 0.0113 | 0.0691
CC1(C)C(NC(=O)c2ccc(C#CC3CCN(CC4CCN(C(=O)C5CCN(c6ccc7nnn(C8CCC(=O)NC8=O)c(=O)c7c6)CC5)CC4)CC3)cc2)C(C)(C)C1Oc1ccc(C#N)c(Cl)c1 (stereo not drawn) [Example 97, N-((1r,3r)-3-(3-chloro-4-cyanophenoxy)-2,2,4,4-tetramethylcyclobutyl)-4-((1-((1-(1-(3-(2,6-dioxopiperidin-3-yl)-4-oxo-3,4-dihydrobenzo[d][1,2,3]triazin-6-yl)piperidine-4-carbonyl)piperidin-4-yl)methyl)piperidin-4-yl)ethynyl)benzamide] |  | 0.00208 | 0.0767
CC1(C)[C@H](NC(=O)c2ccc(OCCOCCOCCOCCOCCOCCNc3cccc4nnn(C5CCC(=O)NC5=O)c(=O)c34)cc2)C(C)(C)[C@H]1Oc1ccc(C#N)c(Cl)c1 (stereo partly drawn) [Example 1, N-((1r,3r)-3-(3-chloro-4-cyanophenoxy)-2,2,4,4-tetramethylcyclobutyl)-4-((17-((3-(2,6-dioxopiperidin-3-yl)-4-oxo-3,4-dihydrobenzo[d][1,2,3]triazin-5-yl)amino)-3,6,9,12,15-pentaoxaheptadecyl)oxy)benzamide] | 72 |  | 5.69
